# Earlier results as cited in patent US20050287230A1, “Method of producing ginsenoside 20 (R)-Rh2 and composition of matter thereof” (priority 2004, published 2005).
# Like-named read-outs stand apart in the source and are kept apart here.
# Tests used:
# [1] = biological target: rhTNF-a (Homo sapiens, UniProt P01375); conditions: external experiment
# [2] = Stomach irrigation with 2 g/kg
# [3] = tested on: LAK cells; conditions: tumor patient
# [4] = mouse, orally taken
# [5] = tested on: sarcoma 180; conditions: 5 mg/kg dosage
# [6] = tested on: B16 melanoma cells
# [7] = tested on: J744 macrophage
# [8] = subcutaneous injection 10 mg/kg
# [9] = tested on: HL60
# [10] = tested on: HRA cells; conditions: dosage-dependent
# [11] = tested on: Morris liver cancer, human cervical cancer, B16 malignant melanoma and Hela cells
# rhTNF-a, sequence (P01375 77-233 limits assumed): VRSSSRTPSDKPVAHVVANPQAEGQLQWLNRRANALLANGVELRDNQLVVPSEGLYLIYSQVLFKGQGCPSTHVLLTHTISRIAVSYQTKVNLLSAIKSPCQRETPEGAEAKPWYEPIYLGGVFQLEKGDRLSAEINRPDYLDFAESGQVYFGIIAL
compound,measurement,setting,value
CC(C)=CCC[C@](C)(O[C@@H]1O[C@H](CO[C@@H]2OC[C@H](O[C@@H]3OC[C@@H](O)[C@H](O)[C@H]3O)[C@H](O)[C@H]2O)[C@@H](O)[C@H](O)[C@H]1O)[C@H]1CC[C@]2(C)[C@@H]1[C@H](O)C[C@@H]1[C@@]3(C)CC[C@H](O[C@@H]4O[C@H](CO)[C@@H](O)[C@H](O)[C@H]4O[C@@H]4O[C@H](CO)[C@@H](O)[C@H](O)[C@H]4O)C(C)(C)[C@@H]3CC[C@]12C [ginsenoside-Ra1],increase of rhTNF-a activity,[1],134 times
CC(C)=CC[C@@H](O)C1=CC(=O)c2c(O)ccc(O)c2C1=O [Shikonin],solubility in water,,insoluble
same,death,[2],no dead mouse
CC(C)=CCC[C@](C)(O[C@@H]1O[C@H](CO)[C@@H](O)[C@H](O)[C@H]1O)[C@H]1CC[C@]2(C)[C@@H]1[C@H](O)C[C@@H]1[C@@]3(C)CC[C@H](O)C(C)(C)[C@@H]3[C@@H](O[C@@H]3O[C@H](CO)[C@@H](O)[C@H](O)[C@H]3O[C@@H]3O[C@@H](C)[C@H](O)[C@@H](O)[C@H]3O)C[C@]12C [ginsenoside Re],level above which effect upon LAK activity appears,[3],> 5 µg/mL
Lentinan,acute toxicity LD50,[4],> 1250 mg/kg
same,solubility in water,,almost indissoluble
same,inhibition rate of anti-tumor,[5],97.5%
CC(C)=CCC[C@](C)(O)[C@H]1CC[C@]2(C)[C@@H]1[C@H](O)C[C@@H]1[C@@]3(C)CC[C@H](O)C(C)(C)[C@@H]3[C@@H](O[C@@H]3O[C@H](CO)[C@@H](O)[C@H](O)[C@H]3O)C[C@]12C [ginsenoside-Rh1],concentration that completely inhibits the proliferation,[6],above 8.0 μg/ml
C[C@H]1[C@H](C)CC[C@]2(C(=O)O)CC[C@]3(C)C(=CC[C@@H]4[C@@]5(C)CC[C@H](O)C(C)(C)[C@@H]5CC[C@]43C)[C@H]12 [Ursolic acid],reversal of the inhibition function of MΦ,[7]; 50 μg/ml,partially deteriorates
same,reversal of the inhibition function of MΦ,[7]; 100 μg/ml,totally deteriorate
same,solubility in water,,insoluble
same,serum gorge invert ammonia enzyme,[8],can reduce
CC(C)=CCC[C@@](C)(O)[C@H]1CC[C@]2(C)[C@@H]1[C@H](O)C[C@@H]1[C@@]3(C)CC[C@H](O)C(C)(C)[C@@H]3[C@@H](O[C@@H]3O[C@H](CO)[C@@H](O)[C@H](O)[C@H]3O)C[C@]12C [ginsenoside 20(R)-Rh1],inhibition of HL60 tumor strain,[9],inhibit the human promyelcytic leukemia HL60 tumor strain significantly
"CC(C)=CCC[C@](C)(O)[C@H]1CC[C@]2(C)[C@@H]1[C@H](O)C[C@@H]1[C@@]3(C)CC[C@H](O[C@@H]4O[C@H](CO)[C@@H](O)[C@H](O)[C@H]4O)C(C)(C)[C@@H]3CC[C@]12C [ginsenoside Rh2, ginseng dialcohol-3-O-β-D-glucopyranoside]",effective range for inhibition of proliferation,[10],10˜100 μmol/L
same,inhibition of HL60 tumor strain,[9],inhibit the human promyelcytic leukemia HL60 tumor strain significantly
same,inhibition of HL60 tumor strain,[9]; listed as ginsenoside-Rh2,significant effect
same,inhibition effect on the proliferation,[11]; 2-10 μg/ml in culture solution,different degrees of inhibition effect
same,inhibition on the proliferation function,[11]; external experiment,outstanding inhibition
